From ChEMBL document CHEMBL1649478, “Comparison of tigecycline and vancomycin for treatment of experimental foreign-body infection due to methicillin-resistant Staphylococcus aureus” (Antimicrob Agents Chemother, 2009)
≈ marks a conversion by molar mass, not a printed value.

Assays:
[1] = system: Staphylococcus aureus; experiment: Antibacterial activity against methicillin-resistant Staphylococcus aureus MRG3 by broth microdilution method; assay type: functional
[2] = Drug level in body fluid of Wistar rat infected with methicillin-resistant Staphylococcus aureus MRG3 at 7 mg/kg, sc BID measured on day 4 postdose; assay type: ADME, organism-based; parameters: dose 7 mg/kg, route subcutaneous; details: in vivo
[3] = Drug level in body fluid of Wistar rat infected with methicillin-resistant Staphylococcus aureus MRG3 at 7 mg/kg, sc BID measured on day 7 postdose; assay type: ADME, organism-based; parameters: dose 7 mg/kg, route subcutaneous; details: in vivo
[4] = system: Plasma; experiment: Drug level in plasma of Wistar rat infected with methicillin-resistant Staphylococcus aureus MRG3 at 7 mg/kg, sc BID measured on day 4 postdose; assay type: ADME, organism-based; parameters: dose 7 mg/kg, route subcutaneous; details: in vivo
[5] = system: Staphylococcus aureus; experiment: Antibacterial activity against methicillin-resistant Staphylococcus aureus MRG3 assessed as log decrease in bacterial count at 1 to 4 ug/ml by broth microdilution method; assay type: functional
[6] = system: Staphylococcus aureus; experiment: Antibacterial activity against methicillin-resistant Staphylococcus aureus MRG3 infected in Wistar rat assessed as bacterial load in body fluid at 7 mg/kg, sc BID after 1 day; assay type: functional; details: route subcutaneous
[7] = system: Staphylococcus aureus; experiment: Antibacterial activity against methicillin-resistant Staphylococcus aureus MRG3 infected in Wistar rat assessed as decrease in bacterial load in body fluid at 7 mg/kg, sc BID after 8 days; assay type: functional; details: route subcutaneous
[8] = system: Staphylococcus aureus; experiment: Bactericidal activity against methicillin-resistant Staphylococcus aureus MRG3 by broth microdilution method
[9] = Cmax in body fluid of Wistar rat infected with methicillin-resistant Staphylococcus aureus MRG3 at 50 mg/kg, sc measured on day 4 postdose; assay type: ADME, organism-based; parameters: dose 50 mg/kg, route subcutaneous
[10] = Cmin in body fluid of Wistar rat infected with methicillin-resistant Staphylococcus aureus MRG3 at 50 mg/kg, sc measured on day 4 postdose; assay type: ADME, organism-based; parameters: dose 50 mg/kg, route subcutaneous; details: in vivo
[11] = system: Staphylococcus aureus; experiment: Antibacterial activity against methicillin-resistant Staphylococcus aureus MRG3 infected in Wistar rat assessed as bacterial load in body fluid at 50 mg/kg, sc after 1 day; assay type: functional; details: route subcutaneous
[12] = system: Staphylococcus aureus; experiment: Antibacterial activity against methicillin-resistant Staphylococcus aureus MRG3 infected in Wistar rat assessed as decrease in bacterial load in body fluid at 50 mg/kg, sc after 8 days; assay type: functional; details: route subcutaneous

Q: Which MIC [1] does the source give for CN(C)c1cc(NC(=O)CNC(C)(C)C)c(O)c2c1C[C@H]1C[C@H]3[C@H](N(C)C)C(O)=C(C(N)=O)C(=O)[C@@]3(O)C(O)=C1C2=O [TIGECYCLINE] here?
A: The MIC was 0.5 µg/mL (≈ 0.854 µM).

Q: What about the Drug uptake [2] of the same compound?
A: The Drug uptake was 0.39 µg/mL.

Q: What about the Drug uptake [3] of the same compound?
A: The Drug uptake was 0.33 µg/mL.

Q: And the Drug uptake [4]?
A: Its Drug uptake is 1.87 µg/mL.

Q: And the log10CFU/ml [5]?
A: The log10CFU/ml was 2.

Q: What about the log10CFU/ml [6] of the same compound?
A: The log10CFU/ml was 6.92.

Q: And the log10CFU/ml [7]?
A: The log10CFU/ml was 0.62.

Q: For CN[C@H](CC(C)C)C(=O)N[C@H]1C(=O)N[C@@H](CC(N)=O)C(=O)N[C@H]2C(=O)N[C@H]3C(=O)N[C@H](C(=O)N[C@H](C(=O)O)c4cc(O)cc(O)c4-c4cc3ccc4O)[C@H](O)c3ccc(c(Cl)c3)Oc3cc2cc(c3O[C@@H]2O[C@H](CO)[C@@H](O)[C@H](O)[C@H]2O[C@H]2C[C@](C)(N)[C@H](O)[C@H](C)O2)Oc2ccc(cc2Cl)[C@H]1O [VANCOMYCIN], which MBC [8] is on record?
A: The MBC was 2 µg/mL (≈ 1.38 µM).

Q: And the Cmax [9]?
A: Its Cmax is 12000 ng/mL.

Q: What about the Cmin [10] of the same compound?
A: The Cmin was 2000 ng/mL.

Q: What about the log10CFU/ml [11] of the same compound?
A: Its log10CFU/ml is 6.7.

Q: What about the log10CFU/ml [12] of the same compound?
A: The log10CFU/ml was 0.76.
